The source of these data is ChEMBL document CHEMBL1136619, “Synthesis of a new family of glycolipidic nitrones as potential antioxidant drugs for neurodegenerative disorders” (Bioorg Med Chem Lett, 2003).

The subject of this assay is neuronal. Description: Cytotoxic activity in cultured neuronal cells determined using MTT viability assay. Type of assay: functional, cell-based. For orientation: Tetrazolium assays rely on reduction of a dye to a coloured formazan, in cell work by metabolically active cells.

`CCCCCCCCCCCCSCC(C)(C)/[N+]([O-])=C/c1ccc(CNC(=O)[C@H](O)[C@@H](O)[C@H](O[C@@H]2O[C@@H](CO)[C@H](O)[C@H](O)[C@@H]2O)[C@H](O)CO)cc1`: the Concentration was determined as 400 µM.
